Reference: patent US6034134A, “1-Amino-alkylcyclohexane NMDA receptor antagonists” (Merz + Co. GmbH & Co., priority 1998, dated 2000)
Counter-ions that a name gives are not always drawn. Like-named read-outs stand apart in the source and are kept apart here.

Assays:
[1] = Protocol: All animals were kept with water and food ad libitum under a 12 hour light-dark cycle (light on at 6 a.m.) and at a controlled temperature (20±0.5° C.). All e experiments were performed between 10 a.m. and 5 p.m. Tested agents were injected 30 min. i.p. before the induction of convulsions if not stated otherwise (see below). All compounds were dissolved in 0.9% saline.
cortical neurones = assay: Excitotoxicity: glutamate toxicity in cultured cortical neurones (MTT); type: cell-based, rat; details: Rattus norvegicus, Cortical neurone
Protocol: Cortical neurones were obtained from cerebral cortices of 17/18 day old fetal rats (Wistar), in general following the dissociation procedure described by. After short trypsinization and gentle trituration with fire-polished Pasteur pipettes, the cell suspension was washed by centrifugation. Cells were suspended in serum-free Neurobasal medium with B27 supplement (GIBCO) before plating onto poly-L-lysine (Sigma; 0.2 mg/ml, 20 h, 4° C.) and laminin (Sigma; 2 μg/ml, 1 h, 37° C.)-coated 96-well plates (Falcon, Primaria) at a density of 5×10^4 cells/well. Cortical neurones were maintained at 37° C. in humidified 10% CO2 /90% air. […] The medium was changed first after 4 days in vitro and then every 4 days by replacing 2/3 of the medium with astrocyte-conditioned medium. Cortical neurones between day 12 and 14 in culture were used for the experiments.
New-born rat astrocytes were isolated non-enzymatically according to the method of [24]. Briefly, both hemispheres were dissected from 2-day-old rats, passed through an 80 μm gauze, and triturated with Pasteur pipettes. Cell suspension was made in Dulbecco's modified essential medium (DMEM, Gibco) supplemented with 10% fetal calf serum (FCS, Hyclone), 2 mM glutamine (Gibco) and 50 μg/ml gentamycin and transferred into untreated, plastic culture flasks (Corning; […]). Two days after plating the flasks were shaken for 10 minutes on a rotary platform (150 U/min) to remove microglial cells. The cultures were grown to confluency within 14 days, and the culture medium was changed twice weekly. Thereafter, the glial monolayers were extensively washed with serum-free Neurobasal medium (Gibco) to remove the serum. Flasks were then shaken several times to remove oligodendrocytes and neurones. To obtain conditioned medium from primary astrocytes, the cultures were incubated with fresh Neurobasal medium supplemented with B27 andglutamine. Every 2-3 days the conditioned medium was collected and replaced by fresh medium up to 4 times.
Exposure to EAA was performed in serum-free Neurobasal medium containing 100 μM glutamate and the drug to be tested. After 20 h of incubation, the cytotoxic effect was morphologically examined under a phase contrast microscope and biochemically quantified by measuring cell viability with the MTT test (Promega). This calorimetric assay measures the reduction of a tetrazolium component (MTT) into an insoluble formazan product by the mitochondria of living cells. After incubation of the cortical neurones with the dye solution for approximately 1-4 hours, a solubilization solution was added to lyse the cells and solubilize the colored product (incubation overnight at 37° C., 10% CO2, 90% RH). These samples were then read using an Elisa plate reader (Thermomax, MWG Biotech) at a wavelength of 570 nm. The amount of color produced was directly proportional to the number of viable cells.
(§1) IC50 s in patch clamp, excitotoxicity, and binding studies were calculated according to the four parameter logistic equation using the Grafit computer program (Erithacus Software, England). Ki value for binding studies were then determined according to Cheng and Prusoff. Binding values presented are means±SEM of 3-5 determinations (each performed in duplicate). […] Pearson product moment correlation analysis (Sigma Stat, Jandel Scientific) was used to compare in vitro potencies and in vivo anticonvulsant activity.

[2] = Maximal electroshock (MES)-induced convulsions in mice; type: in vivo; details: for ED50: Mus musculus, ip, 0.5 h, read-out: MES ED50; for MES ED50: 30 min
Protocol: NMR female mice (18-28 g) housed 5 per cage were used for the maximal electroshock (MES) and motor impairment tests. […] All compounds were dissolved in 0.9% saline.
The MES test was performed together with tests for myorelaxant action (traction reflex) and motor coordination (rotarod). For the traction reflex test mice were placed with their forepaws on a horizontal rod and were required to place all 4 paws on the wire within 10 seconds. To test ataxia (motor coordination) mice were placed on rotarod (5 rpm) and were required to remain on the rod for 1 minute. […] These tests were followed by MES (100 Hz, 0.5 second shock duration, 50 mA shock intensity, 0.9 ms impulse duration, Ugo Basile) applied through corneal electrodes. The presence of tonic convulsions was scored (tonic extension of hind paws with minimum angle to the body of 90°). The aim was to obtain ED50 s for all parameters scored (anticonvulsive activity and motor side effects) with use of the Litchfield Wilcoxon test for quantal dose responses. Division of the ED50 for side effects (ataxia or myorelaxation) by the ED50 for antagonism of electroshock convulsions was used as a therapeutic index (TI). […]

NMDA receptor = assay: [3H]-(+)-MK-801 binding to rat cortical membranes; details: for Ki: read-out: MK-801 Ki, Table 9, Cheng-Prusoff with Kd for MK-801 of […]; for IC50: read-out: [3H] MK-801 IC50, Table 7, footnote calls the values Ki
Protocol: Male Sprague-Dawley rats (200-250 g) were decapitated and their brains were removed rapidly. The cortex was dissected and homogenized in 20 volumes of ice-cold 0.32 M sucrose using a glass-Teflon homogenizer. The homogenate was centrifuged at 1000 ×g for 10 minutes. The pellet was discarded and the supernatant centrifuged at 20,000 ×g for 20 minutes. The resulting pellet was re-suspended in 20 volumes of distilled water and centrifuged for 20 minutes at 8000 ×g. Then the supernatant and the buffy coat were centrifuged three times (48,000 ×g for 20 minutes) in the presence of 50 mM Tris-HCl, pH 8.0. All centrifugation steps were carried out at 4° C. After resuspension in 5 volumes of 50 mM Tris-HCl, pH 8.0 the membrane suspension was frozen rapidly at -80° C. On the day of assay the membranes were thawed and washed four times by resuspension in 50 mM Tris-HCl, pH 8.0 and centrifugation at 48,000 ×g for 20 minutes. The final pellet was suspended in assay buffer. The amount of protein in the final membrane preparation was determined according to the method of Lowry with some modifications. The final protein concentration used for our studies was between 250-500 μg/ml.
Membranes were re-suspended and incubated in 50 mM Tris-HCl, pH 8.0. […] Incubations were terminated using a Millipore filter system. The samples were rinsed three times with 2.5 ml ice cold assay buffer over glass fiber filters obtained from Schleicher & Schuell under a constant vacuum. Filtration was performed as rapidly as possible. Following separation and rinse, the filters were placed into scintillation liquid (5 ml; Ultima Gold) and radio activity retained on the filters was determined with a conventional liquid scintillation counter (Hewlett Packard, Liquid Scintillation Analyser).
as §1

[3] = Table 7, 100 μM glutamate, 20 h, read-out: Glut. Tox. IC50
[4] = Table 9, 100 μM glutamate, read-out: Glut Tox IC50
[5] = Table 7, mice, i.p., 30 min before
[6] = Table 8, mice, i.p., 95% confidence limits in parentheses
[7] = 20 h, read-out: Glut. Tox. IC50

Compound | Min Lethality ([1]; mouse, in vivo, ip) [mg/kg] | IC50 (cortical neurones; [3]) [µM] | IC50 (cortical neurones; [4]) [µM] | ED50 [2, 5] [mg/kg] | ED50 [2, 6] [mg/kg] | Ki (NMDA receptor) [µM] | IC50 (NMDA receptor) [µM] | Min Lethality ([1]; i.p., minimal lethal dose) [mg/kg] | IC50 (cortical neurones; [7]) [µM] | IC50 (cortical neurones; read-out: Glut Tox IC50) [µM] | ED50 [2] [mg/kg] | MES ED50 [2, 6]
CCC[C@]1(C)C[C@@H](C)C[C@@](C)(N)C1 (relative stereo) [Mrz 2/619] | > 50 | 30.9 | 30.9 | 44.6 | 44.6 | 57.8 | 72.1 | – | – | – | – | –
CCC1(C)CC(C)(C)CC(C)(N)C1 (stereo not drawn) [Mrz 2/615, 1-amino-1,3,5,5-tetramethyl-3-ethylcyclohexane] | – | 2.3 | 2.29 | 6.1 | 6.1 | 2.42 | 2.5 | > 50 | – | – | – | –
CC1(N)CCCCC1 [Mrz 2/641] | – | > 100 | > 100 | > 50 | > 50 | 143 | 184 | > 50 | – | – | – | –
CC[C@H]1CC(C)(C)C[C@](C)(N)C1 [MRZ 2/682, (1R, 5S) trans-3-Ethyl-1,5,5-trimethylcyclohexylamine hydrochloride] | > 50 | – | 3.11 | – | 7.6 | 1.99 | – | – | – | – | – | –
CCC1(CC)CC(C)(C)CC(C)(N)C1 (stereo not drawn) [Mrz 2/623, 1-amino-1,5,5-trimethyl-3,3-diethylcyclohexane] | – | 4.5 | 4.5 | 13.1 | 13.1 | 3.16 | 3.3 | > 30 | – | – | – | –
CCCC1(CCC)CC(C)(C)CC(C)(N)C1 (stereo not drawn) [Mrz 2/626] | > 50 | 19 | 19 | 41.2 | 41.2 | 16.5 | 11.6 | – | – | – | – | –
CC1(C)CC(N)CC(C)(C)C1 [Mrz 2/557] | > 70 | 6.7 | 6.7 | 43.9 | 43.9 | 19.9 | 17.6 | – | – | – | – | –
CC1(C)CC(CN)CC(C)(C)C1.Cl [Mrz 2/580, 3,3,5,5-tetramethylcyclohexylmethylamine hydrochloride] | – | 5.6 | 5.6 | 27.3 | 27.3 | 17.8 | 15.9 | 50 | – | – | – | –
C[C@H]1CC(C)(C)C[C@@](C)(N)C1 (relative stereo) [Mrz 2/643] | > 50 | 12 | 12 | 18.6 | 18.6 | 4.66 | 3.6 | – | – | – | – | –
CC[C@@]1(C)C[C@H](C)C[C@@](C)(N)C1 (relative stereo) [Mrz 2/622] | 50 | 19.3 | 19.3 | 21 | 21 | 13.3 | 15 | – | – | – | – | –
CCC[C@@]1(C)C[C@H](C)C[C@@](C)(N)C1 (relative stereo) [Mrz 2/618] | > 50 | 17.6 | 17.6 | 24 | 24 | 24 | 32.7 | – | – | – | – | –
CCCC1(C)CCCC(C)(N)C1 (stereo not drawn) [Mrz 2/617] | > 50 | > 70 | > 70 | 54.9 | 54.9 | 38 | 51.8 | – | – | – | – | –
C[C@@H]1CCC[C@@](C)(N)C1 (relative stereo) [Mrz 2/625] | > 70 | 39.4 | 39.4 | 130 | 130 | 52.6 | 46.8 | – | – | – | – | –
CC12CC3CC(C)(C1)CC(N)(C3)C2 [Memantine, reference compound] | – | – | – | 6.9 | 6.9 | 2.45 | 0.7 | > 108 | 1.3 | 1.4 | – | –
CC[C@]1(C)C[C@@H](C)C[C@@](C)(N)C1 (relative stereo) [Mrz 2/624] | 100 | 2.7 | 2.7 | 47.2 | 47.2 | 15.1 | 15.4 | – | – | – | – | –
CCNC1(C)CC(C)(C)CC(C)(C)C1 [Mrz 2/639, N-ethyl-1-amino-1,3,3,5,5-pentamethylcyclohexane] | – | 5.7 | 6.33 | 5.5 | 5.87 | 4.17 | 3.3 | 30 | – | – | – | –
CC1(C)CCCC(C)(N)C1 (stereo not drawn) [Mrz 2/621] | – | – | – | – | – | 32.2 | 36.7 | > 60 | > 100 | > 100 | 36.9 | 36.9 (22.6-60.3) mg/kg
CN(C)C1(C)CC(C)(C)CC(C)(C)C1 [Mrz 2/642] | – | – | – | – | – | 12.7 | 10.2 | – | 29.3 | 29.3 | 8.04 | 8.04 (5.1-12.7) mg/kg
CC[C@H]1CC(C)(C)C[C@@](C)(N)C1 (relative stereo) [Mrz 2/632] | > 30 | 10.9 | 11.2 | 11 | 11 | 2.88 | 2 | – | – | – | – | –
CC(C)(N)CC1CC(C)(C)CC(C)(C)C1 [Mrz 2/645] | – | > 100 | > 100 | 65.6 | 65.6 | 60.2 | 85.1 | – | – | – | – | –
